# From PubChem BioAssay (NCI)
#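 The compound was tested at five concentrations on cells cultured in 96-well plates, with a 48-hour exposure period. At the TGI there is no net growth.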
# Assays:
# Test in all cases: NCI anticancer screen, dose series, 48 h
# EKVX NSCLC = test system: EKVX NSCLC
# NCI-H460 lung = test system: NCI-H460 lung
# NCI-H226 lung = test system: NCI-H226 lung
# RXF 393 renal = test system: RXF 393 renal
# A498 renal = test system: A498 renal
# OVCAR-3 ovarian = test system: OVCAR-3 ovarian
# SR leukemia = test system: SR leukemia
# DLD-1 colon = test system: DLD-1 colon
# SF-539 CNS = test system: SF-539 CNS
# SNB-75 CNS = test system: SNB-75 CNS
# NCI-H522 lung = test system: NCI-H522 lung
# HOP-18 NSCLC = test system: HOP-18 NSCLC
# UACC-257 melanoma = test system: UACC-257 melanoma
# A549 NSCLC = test system: A549 NSCLC
# SK-OV-3 ovarian = test system: SK-OV-3 ovarian
# RPMI-8226 leukemia = test system: RPMI-8226 leukemia
# SNB-78 CNS = test system: SNB-78 CNS
# DMS 273 small cell lung = test system: DMS 273 small cell lung
# HCT-15 colon = test system: HCT-15 colon
# U251 CNS = test system: U251 CNS
# KM12 colon = test system: KM12 colon
# SNB-19 CNS = test system: SNB-19 CNS
# DMS 114 small cell lung = test system: DMS 114 small cell lung
# SK-MEL-5 melanoma = test system: SK-MEL-5 melanoma
# SF-268 CNS = test system: SF-268 CNS
# XF 498 CNS = test system: XF 498 CNS
# UACC-62 melanoma = test system: UACC-62 melanoma
# HOP-92 NSCLC = test system: HOP-92 NSCLC
# HCC-2998 colon = test system: HCC-2998 colon
# SK-MEL-2 melanoma = test system: SK-MEL-2 melanoma
# SF-295 CNS = test system: SF-295 CNS
# MOLT-4 leukemia = test system: MOLT-4 leukemia
# LXFL 529 NSCLC = test system: LXFL 529 NSCLC
# SW-620 colon = test system: SW-620 colon
# HOP-62 NSCLC = test system: HOP-62 NSCLC
# OVCAR-8 ovarian = test system: OVCAR-8 ovarian
# ACHN renal = test system: ACHN renal
# OVCAR-5 ovarian = test system: OVCAR-5 ovarian
# KM20L2 colon = test system: KM20L2 colon
# HCT-116 colon = test system: HCT-116 colon
# M14 melanoma = test system: M14 melanoma
# HL-60(TB) leukemia = test system: HL-60(TB) leukemia
# HT29 colon = test system: HT29 colon
# 786-0 renal = test system: 786-0 renal
# TK-10 renal = test system: TK-10 renal
# CCRF-CEM leukemia = test system: CCRF-CEM leukemia
# LOX IMVI melanoma = test system: LOX IMVI melanoma
# NCI-H23 lung = test system: NCI-H23 lung
# K-562 leukemia = test system: K-562 leukemia
# SN12C renal = test system: SN12C renal
# UO-31 renal = test system: UO-31 renal
# MALME-3M melanoma = test system: MALME-3M melanoma
# CAKI-1 renal = test system: CAKI-1 renal
# COLO 205 colon = test system: COLO 205 colon
# SK-MEL-28 melanoma = test system: SK-MEL-28 melanoma
# IGROV1 ovarian = test system: IGROV1 ovarian
# M19-MEL melanoma = test system: M19-MEL melanoma
# OVCAR-4 ovarian = test system: OVCAR-4 ovarian
smiles,measurement,setting,value
c1ccc(COc2ccc3[nH]c4c(ncc5[nH]c6ccccc6c54)c3c2)cc1,TGI,EKVX NSCLC,32.4 µM
same,TGI,NCI-H460 lung,37 µM
same,TGI,NCI-H226 lung,30.9 µM
same,TGI,RXF 393 renal,23.3 µM
same,TGI,A498 renal,41.6 µM
same,TGI,OVCAR-3 ovarian,30.3 µM
same,TGI,SR leukemia,30.3 µM
same,TGI,DLD-1 colon,17.7 µM
same,TGI,SF-539 CNS,29.4 µM
same,TGI,SNB-75 CNS,25.5 µM
same,TGI,NCI-H522 lung,31.9 µM
same,TGI,HOP-18 NSCLC,26.1 µM
same,TGI,UACC-257 melanoma,32.8 µM
same,TGI,A549 NSCLC,34.9 µM
same,TGI,SK-OV-3 ovarian,32.9 µM
same,TGI,RPMI-8226 leukemia,8.01 µM
same,TGI,SNB-78 CNS,40 µM
same,TGI,DMS 273 small cell lung,30.4 µM
same,TGI,HCT-15 colon,14.9 µM
same,TGI,U251 CNS,24.4 µM
same,TGI,KM12 colon,29.5 µM
same,TGI,SNB-19 CNS,33.5 µM
same,TGI,DMS 114 small cell lung,38.3 µM
same,TGI,SK-MEL-5 melanoma,30 µM
same,TGI,SF-268 CNS,34.6 µM
same,TGI,XF 498 CNS,26.6 µM
same,TGI,UACC-62 melanoma,35.3 µM
same,TGI,HOP-92 NSCLC,29.9 µM
same,TGI,HCC-2998 colon,23.6 µM
same,TGI,SK-MEL-2 melanoma,30.8 µM
same,TGI,SF-295 CNS,28.2 µM
same,TGI,MOLT-4 leukemia,31.6 µM
same,TGI,LXFL 529 NSCLC,29.5 µM
same,TGI,SW-620 colon,32.3 µM
same,TGI,HOP-62 NSCLC,30.5 µM
same,TGI,OVCAR-8 ovarian,32.2 µM
same,TGI,ACHN renal,31.6 µM
same,TGI,OVCAR-5 ovarian,33.6 µM
same,TGI,KM20L2 colon,20.4 µM
same,TGI,HCT-116 colon,27 µM
same,TGI,M14 melanoma,26.7 µM
same,TGI,HL-60(TB) leukemia,4.35 µM
same,TGI,HT29 colon,17.8 µM
same,TGI,786-0 renal,18.5 µM
same,TGI,TK-10 renal,40.8 µM
same,TGI,CCRF-CEM leukemia,40.7 µM
same,TGI,LOX IMVI melanoma,32.9 µM
same,TGI,NCI-H23 lung,35.3 µM
same,TGI,K-562 leukemia,6.11 µM
same,TGI,SN12C renal,29.7 µM
same,TGI,UO-31 renal,32.8 µM
same,TGI,MALME-3M melanoma,18.2 µM
same,TGI,CAKI-1 renal,47.5 µM
same,TGI,COLO 205 colon,47.1 µM
same,TGI,SK-MEL-28 melanoma,31.6 µM
same,TGI,IGROV1 ovarian,18.9 µM
Cc1cc2occ(C)c(=O)c2c2c1OC(C)(C)S2,TGI,EKVX NSCLC,> 100 µM
same,TGI,NCI-H460 lung,> 100 µM
same,TGI,NCI-H226 lung,> 100 µM
same,TGI,RXF 393 renal,> 100 µM
same,TGI,OVCAR-3 ovarian,> 100 µM
same,TGI,SR leukemia,> 100 µM
same,TGI,DLD-1 colon,> 100 µM
same,TGI,SF-539 CNS,> 100 µM
same,TGI,SNB-75 CNS,> 100 µM
same,TGI,NCI-H522 lung,> 100 µM
same,TGI,HOP-18 NSCLC,> 100 µM
same,TGI,UACC-257 melanoma,> 100 µM
same,TGI,A549 NSCLC,> 100 µM
same,TGI,SK-OV-3 ovarian,> 100 µM
same,TGI,RPMI-8226 leukemia,> 100 µM
same,TGI,DMS 273 small cell lung,> 100 µM
same,TGI,HCT-15 colon,> 100 µM
same,TGI,U251 CNS,> 100 µM
same,TGI,KM12 colon,> 100 µM
same,TGI,SNB-19 CNS,> 100 µM
same,TGI,DMS 114 small cell lung,> 100 µM
same,TGI,SK-MEL-5 melanoma,> 100 µM
same,TGI,SF-268 CNS,> 100 µM
same,TGI,XF 498 CNS,> 100 µM
same,TGI,UACC-62 melanoma,> 100 µM
same,TGI,HOP-92 NSCLC,> 100 µM
same,TGI,HCC-2998 colon,> 100 µM
same,TGI,SK-MEL-2 melanoma,> 100 µM
same,TGI,SF-295 CNS,> 100 µM
same,TGI,MOLT-4 leukemia,> 100 µM
same,TGI,LXFL 529 NSCLC,> 100 µM
same,TGI,M19-MEL melanoma,> 100 µM
same,TGI,SW-620 colon,> 100 µM
same,TGI,HOP-62 NSCLC,> 100 µM
same,TGI,OVCAR-8 ovarian,> 100 µM
same,TGI,ACHN renal,> 100 µM
same,TGI,OVCAR-5 ovarian,> 100 µM
same,TGI,KM20L2 colon,> 100 µM
same,TGI,HCT-116 colon,> 100 µM
same,TGI,OVCAR-4 ovarian,> 100 µM
same,TGI,M14 melanoma,> 100 µM
same,TGI,HL-60(TB) leukemia,> 100 µM
same,TGI,HT29 colon,> 100 µM
same,TGI,786-0 renal,> 100 µM
same,TGI,TK-10 renal,> 100 µM
same,TGI,CCRF-CEM leukemia,> 100 µM
same,TGI,LOX IMVI melanoma,> 100 µM
same,TGI,NCI-H23 lung,> 100 µM
same,TGI,K-562 leukemia,> 100 µM
same,TGI,SN12C renal,> 100 µM
same,TGI,UO-31 renal,> 100 µM
same,TGI,MALME-3M melanoma,> 100 µM
same,TGI,COLO 205 colon,> 100 µM
same,TGI,SK-MEL-28 melanoma,> 100 µM
same,TGI,IGROV1 ovarian,> 100 µM
